From patent publication US20090149531A1, “CHEMICAL COMPOSITION DERIVED FROM P-HYDROXYPHENYL PROPIONIC ACID FOR THE TREATMENT OF PSORIASIS” (APOTEKNOS PARA LA PIEL, S.L., priority 2007, published 2009)
Where “and” joins values, the source holds several entries; their conditions need not be identical. Equal entries are not always repeated.

Legend:
[1] = Permeability study, pig ear skin in Franz cell; assay type: in vitro ADME; conditions: hydroalcoholic solution 63.6 μg/ml or 6.36 μg/ml
Description: Skin from pig ears was used as the experimental system to which a hydroalcoholic solution of compound A 6.36×10^−2 mg/ml and 6.36×10^−3 mg/ml was applied, the reference product being a control hydroalcoholic solution (without compound A). For this study 4 different hydroalcoholic solutions were prepared. The first included 6.36 μg/ml of compound A, the second included 63.6 μg/ml, and the third and fourth were control solutions without compound A. All the preparations were tested on the pig ear skin experimental system. Samples were taken in the diffuser compartment at 6 different times (0, 1, 2, 6, 12 and 24 hours). All the samples (recipients) were quantified by HPLC. FIG. 1. Concentration of compound A in the recipient of the Franz cell for a sample with a concentration of 63.6 μg/ml of A. FIG. 2. Concentration of compound A in the recipient of the Franz cell for a sample with a concentration of 6.36 μg/ml of A.

[2] = tested on: Salmonella typhimurium TA100; assay: Ames test without external metabolisation, TA100; assay type: cell-based; conditions: no metabolic activation; for Colonies per plate: individual plates 1-4, A; for Colonies per plate / Colonies per plate, Mean: 48 hours; for Mutagenic Ind,: relative to H+/B+
Description: (§1) The mutagenic activity of compound A was evaluated using the Ames test without external metabolisation. The Ames test is based on the use of bacterial strains to detect mutations in the DNA in vitro using bacterial strains that make it possible to detect types of damage to the genome.
(§2) Bacteria of 4 strains of Salmonella typhimurium that are internationally recommended for this test, TA1535, TA1537, TA98 and TA100, were used. The test was carried out according to highly standardised protocols. […] The test was carried out without external metabolic activation. The plates were incubated at 37° C. and the reverting colonies were counted after 48 hours.

[3] = tested on: Salmonella typhimurium TA1535; assay: Ames test without external metabolisation, TA1535; assay type: cell-based; conditions: no metabolic activation; for Colonies per plate: individual plates 1-4, A; for Colonies per plate / Colonies per plate, Mean: 48 hours; for Mutagenic Ind,: relative to H+/B+
Description: as §1, §2

[4] = tested on: Salmonella typhimurium TA1537; assay: Ames test without external metabolisation, TA1537; assay type: cell-based; conditions: no metabolic activation; for Colonies per plate: individual plates 1-4; for Colonies per plate / Colonies per plate, Mean: 48 hours; for Mutagenic Ind,: relative to H+/B+
Description: as §1, §2

[5] = tested on: cell hyperproliferation in hairless rats; assay: Model of desquamation in hairless rats: corneous material extracted; assay type: in vivo; conditions: for amount of corneous material extracted, total sum of the right and left flanks, Portal No, 1 / amount of corneous material extracted, total sum of the right and left flanks, Portal No, 2 / amount of corneous material extracted, total sum of the right and left flanks, Portal No, 3 / amount of corneous material extracted, total sum of the right and left flanks, Portal No, 4 / amount of corneous material extracted, total sum of the right and left flanks, Portal No, 5 / amount of corneous material extracted, total sum of the right and left flanks, Portal No, 6: day 11
Description: The activity of compound A on cell hyperproliferation in hairless rats was evaluated using the model of desquamation in hairless rats described in the publication: Bräutigam, M., Hübner, H., Rach, P., Thieroff-Ekerdi, R. “Effects of Calcipotriol (MC 903) and Calcitriol after Topical Application on the Skin of Hairless Rats”, Skin Pharmacol 1992; 5:87-92.
(§3) To do this Calcitriol was used as the reference product at 0.01% and compound A was used as the test product at 1% and 0.1% (100 μg/cm^2 and 10 μg/cm^2, respectively). A Control Group was included, administered only with the vehicle (absolute ethanol).
The animals were randomly distributed into the following experimental groups:
(§4) The treatments were administered topically, once a day for 10 days (100 μg/side/animal). The animals were weighed on a daily basis throughout the study and the grade of erythema was evaluated (0=Absence of erythema, 1=Low grade erythema, 3=High grade erythema). On the last day of the study, day 11, the amount of corneous material extracted from the epidermis of the animals was evaluated.

[6] = Assessment of erythema in the hairless rat study; assay type: in vivo, hairless rats; conditions: 0=absence, 1=low grade, 3=high grade
Description: as §3, §4

[7] = Body weight in the hairless rat study; assay type: in vivo, hairless rats
Description: as §3, §4

[8] = Signs of toxicity and deaths in the hairless rat study; assay type: in vivo; conditions: compound A at 1%, topical
Description: A Control Group was included, administered only with the vehicle (absolute ethanol).
as §4

[9] = Compound A 0.1% (10 μg/cm^2) topical once a day for 10 days
[10] = Compound A 1% (100 μg/cm^2) topical once a day for 10 days
[11] = Compound A 0.1% topical once a day, Baseline
[12] = Compound A 0.1% topical once a day, Day 2
[13] = Compound A 0.1% topical once a day, Day 3
[14] = Compound A 0.1% topical once a day, Day 4
[15] = Compound A 0.1% topical once a day, Day 5
[16] = Compound A 0.1% topical once a day, Day 6
[17] = Compound A 0.1% topical once a day, Day 7
[18] = Compound A 0.1% topical once a day, Day 8
[19] = Compound A 0.1% topical once a day, Day 9
[20] = Compound A 0.1% topical once a day, Day 10
[21] = Compound A 0.1% topical once a day, Day 11
[22] = Compound A 1% topical once a day, Baseline
[23] = Compound A 1% topical once a day, Day 2
[24] = Compound A 1% topical once a day, Day 3
[25] = Compound A 1% topical once a day, Day 4
[26] = Compound A 1% topical once a day, Day 5
[27] = Compound A 1% topical once a day, Day 6
[28] = Compound A 1% topical once a day, Day 7
[29] = Compound A 1% topical once a day, Day 8
[30] = Compound A 1% topical once a day, Day 9
[31] = Compound A 1% topical once a day, Day 10
[32] = Compound A 1% topical once a day, Day 11

SMILES: C=C1C(=O)O[C@H](CCc2ccc(OC)cc2)[C@@H]1C [Compound A]
- amount of compound A dissolved in the recipient ([1]; samples at 0-24 hours, HPLC quantification limit): < 0.01 mg/mL
- transdermal flow through the skin of the pig ear ([1]; up to 24 hours): no transdermal flow
- Colonies per plate ([2]; Comp. A 10 μg/ml): 38 and 41 and 44 and 54
- Colonies per plate, Mean ([2]; Comp. A 10 μg/ml): 44.25
- Mutagenic Ind, ([2]; Comp. A 10 μg/ml): 0.9124
- Colonies per plate ([2]; Comp. A 100 μg/ml): 45 and 35 and 31 and 51
- Colonies per plate, Mean ([2]; Comp. A 100 μg/ml): 40.5
- Mutagenic Ind, ([2]; Comp. A 100 μg/ml): 0.8351
- Colonies per plate ([2]; Comp. A 1 mg/ml): 52 and 37 and 38 and 40
- Colonies per plate, Mean ([2]; Comp. A 1 mg/ml): 44
- Mutagenic Ind, ([2]; Comp. A 1 mg/ml): 0.9072
- Ames test result (mutagenic effects) ([2]; TA100, concentrations evaluated 10 μg/ml to 1 mg/ml): negative
- Colonies per plate ([3]; Comp. A 10 μg/ml): 1 (2×) and 2 and 0
- Colonies per plate, Mean ([3]; Comp. A 10 μg/ml): 1
- Mutagenic Ind, ([3]; Comp. A 10 μg/ml): 0.5
- Colonies per plate ([3]; Comp. A 100 μg/ml): 1 (2×) and 2 and 0
- Colonies per plate, Mean ([3]; Comp. A 100 μg/ml): 1
- Mutagenic Ind, ([3]; Comp. A 100 μg/ml): 0.5
- Colonies per plate ([3]; Comp. A 1 mg/ml): 1 (2×) and 0 and 2
- Colonies per plate, Mean ([3]; Comp. A 1 mg/ml): 1
- Mutagenic Ind, ([3]; Comp. A 1 mg/ml): 0.5
- Ames test result (mutagenic effects) ([3]; TA1535, concentrations evaluated 10 μg/ml to 1 mg/ml): negative
- Colonies per plate ([4]; Comp. A 10 μg/ml, A): 0 (3×) and 1
- Colonies per plate, Mean ([4]; Comp. A 10 μg/ml): 0.25
- Mutagenic Ind, ([4]; Comp. A 10 μg/ml): 0.5
- Colonies per plate ([4]; Comp. A 100 μg/ml, A): 0 (2×) and 1 and 2
- Colonies per plate, Mean ([4]; Comp. A 100 μg/ml): 0.75
- Mutagenic Ind, ([4]; Comp. A 100 μg/ml): 1.5
- Colonies per plate ([4]; Comp. A 1 mg/ml): 0
- Colonies per plate, Mean ([4]; Comp. A 1 mg/ml): 0
- Mutagenic Ind, ([4]; Comp. A 1 mg/ml): 0
- Ames test result (mutagenic effects) ([4]; TA1537, concentrations evaluated 10 μg/ml to 1 mg/ml): negative
- amount of corneous material extracted, total sum of the right and left flanks, Portal No, 1 [5, 9]: 3.1 ± 0.17 mg
- amount of corneous material extracted, total sum of the right and left flanks, Portal No, 2 [5, 9]: 1.7 ± 0.08 mg
- amount of corneous material extracted, total sum of the right and left flanks, Portal No, 3 [5, 9]: 1.1 ± 0.14 mg
- amount of corneous material extracted, total sum of the right and left flanks, Portal No, 4 [5, 9]: 1.1 ± 0.22 mg
- amount of corneous material extracted, total sum of the right and left flanks, Portal No, 5 [5, 9]: 1.1 ± 0.28 mg
- amount of corneous material extracted, total sum of the right and left flanks, Portal No, 6 [5, 9]: 8.1 ± 0.47 mg
- amount of corneous material extracted, total sum of the right and left flanks, Portal No, 1 [5, 10]: 3.1 ± 0.75 mg
- amount of corneous material extracted, total sum of the right and left flanks, Portal No, 2 [5, 10]: 2.7 ± 0.23 mg
- amount of corneous material extracted, total sum of the right and left flanks, Portal No, 3 [5, 10]: 2.0 ± 0.26 mg
- amount of corneous material extracted, total sum of the right and left flanks, Portal No, 4 [5, 10]: 1.4 ± 0.169 mg
- amount of corneous material extracted, total sum of the right and left flanks, Portal No, 5 [5, 10]: 1.4 ± 0.23 mg
- amount of corneous material extracted, total sum of the right and left flanks, Portal No, 6 [5, 10]: 12.6 ± 0.76 mg
- effect on the animals' skin (corneous material extracted) ([5]; compound A at 0.1%, topical): no effect
- amount of corneous material extracted in relation to the control group and compound A at 0.1% ([5]; compound A at 1%, Student Newman Keuls, p<0.01): statistically significant differences
- Assessment of erythema (mean grade) [6, 11]: 0.0 ± 0.00
- Assessment of erythema (mean grade) [6, 12]: 0.0 ± 0.00
- Assessment of erythema (mean grade) [6, 13]: 0.0 ± 0.00
- Assessment of erythema (mean grade) [6, 14]: 0.0 ± 0.00
- Assessment of erythema (mean grade) [6, 15]: 0.0 ± 0.00
- Assessment of erythema (mean grade) [6, 16]: 0.0 ± 0.00
- Assessment of erythema (mean grade) [6, 17]: 0.0 ± 0.00
- Assessment of erythema (mean grade) [6, 18]: 0.0 ± 0.00
- Assessment of erythema (mean grade) [6, 19]: 0.0 ± 0.00
- Assessment of erythema (mean grade) [6, 20]: 0.0 ± 0.00
- Assessment of erythema (mean grade) [6, 21]: 0.0 ± 0.00
- Assessment of erythema (mean grade) [6, 22]: 0.0 ± 0.00
- Assessment of erythema (mean grade) [6, 23]: 1.0 ± 0.00
- Assessment of erythema (mean grade) [6, 24]: 1.0 ± 0.00
- Assessment of erythema (mean grade) [6, 25]: 1.2 ± 0.11
- Assessment of erythema (mean grade) [6, 26]: 1.3 ± 0.17
- Assessment of erythema (mean grade) [6, 27]: 1.5 ± 0.22
- Assessment of erythema (mean grade) [6, 28]: 1.5 ± 0.22
- Assessment of erythema (mean grade) [6, 29]: 1.2 ± 0.40
- Assessment of erythema (mean grade) [6, 30]: 0.9 ± 0.15
- Assessment of erythema (mean grade) [6, 31]: 0.9 ± 0.15
- Assessment of erythema (mean grade) [6, 32]: 1.2 ± 0.17
- Body weight [7, 11]: 0.0 ± 0.00 g
- Body weight [7, 12]: 0.0 ± 0.00 g
- Body weight [7, 13]: 0.0 ± 0.00 g
- Body weight [7, 14]: 0.0 ± 0.00 g
- Body weight [7, 15]: 0.0 ± 0.00 g
- Body weight [7, 16]: 0.0 ± 0.00 g
- Body weight [7, 17]: 0.0 ± 0.00 g
- Body weight [7, 18]: 0.0 ± 0.00 g
- Body weight [7, 19]: 0.0 ± 0.00 g
- Body weight [7, 20]: 0.0 ± 0.00 g
- Body weight [7, 21]: 0.0 ± 0.00 g
- Body weight [7, 22]: 0.0 ± 0.00 g
- Body weight [7, 23]: 1.0 ± 0.00 g
- Body weight [7, 24]: 1.0 ± 0.00 g
- Body weight [7, 25]: 1.2 ± 0.11 g
- Body weight [7, 26]: 1.3 ± 0.17 g
- Body weight [7, 27]: 1.5 ± 0.22 g
- Body weight [7, 28]: 1.5 ± 0.22 g
- Body weight [7, 29]: 1.2 ± 0.40 g
- Body weight [7, 30]: 0.9 ± 0.15 g
- Body weight [7, 31]: 0.9 ± 0.15 g
- Body weight [7, 32]: 1.2 ± 0.17 g
- signs of toxicity [8]: none of the animals presented signs of toxicity
